For the experiment, the target named is Beta-lactamase (Escherichia coli K-12, UniProt P00811). Briefly: Inhibition of Beta-Lactamase Enzymes: A buffer consisting of 0.1 M sodium phosphate (pH 7.0), 10 mM NaHCO3, and 0.005% Triton X-100 was used for all enzymes. The chromogenic substrate nitrocefin (SynGene, Bangalore, India) was used at 100 μM. Enzyme activity was monitored by the 490 nm absorbance increase upon nitrocefin hydrolysis. Assays were performed in clear polystyrene 384-well plates (Greiner Bio-One, Monroe, N.C.). Absorbance was measured for 1 hour at 30-s intervals using a Spectramax absorbance plate reader (Molecular Devices, Sunnyvale, Calif.). Measurement of beta-lactamase inhibition by INHIBITOR employed serial 3-fold dilutions of the inhibitor in assay buffer, ranging from 100 μM to 62.7 pM. A background absorbance progress curve for a control lacking enzyme and inhibitor was subtracted from each progress curve. It counts as single protein.
Beta-lactamase, sequence (P00811 whole entry): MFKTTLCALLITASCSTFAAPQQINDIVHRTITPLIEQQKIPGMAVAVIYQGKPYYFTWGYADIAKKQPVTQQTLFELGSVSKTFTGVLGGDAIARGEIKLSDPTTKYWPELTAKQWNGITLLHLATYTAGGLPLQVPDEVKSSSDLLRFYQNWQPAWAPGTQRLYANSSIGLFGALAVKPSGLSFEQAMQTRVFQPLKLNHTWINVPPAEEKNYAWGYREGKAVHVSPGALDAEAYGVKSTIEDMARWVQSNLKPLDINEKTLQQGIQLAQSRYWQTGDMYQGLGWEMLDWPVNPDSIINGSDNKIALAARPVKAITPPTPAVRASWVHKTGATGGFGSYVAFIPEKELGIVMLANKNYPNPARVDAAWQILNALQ

Our source for the IC50 values is ChEMBL document CHEMBL5728033 (2020).

In general, IC50 refers to the midpoint of a concentration-inhibition curve. Lower therefore signals greater potency. Regarding `CC1=C[C@@H]2CN(C(=O)N2OC(F)(F)C(=O)O)[C@@H]1C(N)=O`, the IC50 was 12 nM.

The compound `NC(=O)[C@@H]1C(C2CC2)=C[C@@H]2CN1C(=O)N2O[C@@H](F)C(=O)O` returned an IC50 of 95 nM.

On to `CC1=C[C@@H]2CN(C(=O)N2O[C@@H](F)C(=O)O)[C@@H]1C(=O)NCCS(N)(=O)=O`, for which the IC50 was 4.1 nM. The figure for `CC1=C[C@@H]2CN(C(=O)N2OCC(=O)O)[C@@H]1C(N)=O` is 1200 nM; for `CC1=C[C@@H]2CN(C(=O)N2O[C@@H](F)C(=O)O)[C@@H]1C(=O)NC1COC1` it is 54 nM. With `CC1=C[C@@H]2CN(C(=O)N2O[C@@H](F)C(=O)O)[C@@H]1C(N)=O` the figure was 71 nM; with `CC1=C[C@@H]2CN(C(=O)N2O[C@H](F)C(=O)O)[C@@H]1C(N)=O`, 11 nM; with `CC1=C[C@@H]2CN(C(=O)N2O[C@@H](F)C(=O)O)[C@@H]1C(=O)NOCC1CC1`, 130 nM. With `CC1=C[C@@H](C(N)=O)N2C[C@@H]1N(O[C@@H](F)C(=O)O)C2=O` the figure was 300 nM; with `CC1=C[C@@H]2CN(C(=O)N2O[C@@H](F)C(=O)O)[C@@H]1C(=O)NCCNS(N)(=O)=O`, 14 nM. Consider `CC1=C[C@@H](C(N)=O)N2C[C@@H]1N(OCC(=O)O)C2=O`, for which the IC50 stood at 4600 nM. With `CC1=C[C@@H](C(N)=O)N2C[C@@H]1N(O[C@H](F)C(=O)O)C2=O` the figure was 160 nM; with `CC1=C[C@@H]2CN(C(=O)N2O[C@@H](F)C(=O)O)[C@@H]1C(=O)NCO`, 17 nM; with `CC1=C[C@@H]2CN(C(=O)N2O[C@@H](F)C(=O)O)[C@@H]1C(=O)NOC[C@@H]1CC(F)(F)CN1`, 40 nM. The figure for `CC1=C[C@@H]2CN(C(=O)N2O[C@@H](F)C(=O)O)[C@@H]1C(=O)NCCC(N)=O` is 4.4 nM.

The compound `CC1=C[C@@H]2CN(C(=O)N2O[C@@H](F)C(=O)O)[C@@H]1C(=O)NCCNS(C)(=O)=O` returned an IC50 of 7.3 nM. With `CC1=C[C@@H]2CN(C(=O)N2O[C@@H](F)C(=O)O)[C@@H]1C(=O)NOC[C@@H]1CCC(=O)N1` the figure was 53 nM. The figure for `CC1=C[C@@H]2CN(C(=O)N2O[C@@H](F)C(=O)O)[C@@H]1C(=O)NCc1cnccn1` is 2 nM; for `CC1=C[C@@H]2CN(C(=O)N2O[C@@H](F)C(=O)O)[C@@H]1C(=O)NCc1ncco1` it is 9.3 nM; for `CC1=C[C@@H]2CN(C(=O)N2O[C@@H](F)C(=O)O)[C@@H]1C(=O)NOC[C@@H]1CCCN1` it is 410 nM. Regarding `O=C(O)C(F)ON1C(=O)N2C[C@H]1CC[C@H]2C(=O)NC1CCNCC1` (some centres not stated), the IC50 was found to be 1600 nM. With `CC1=C[C@@H]2CN(C(=O)N2O[C@@H](F)C(=O)O)[C@@H]1C(=O)NOCCS(N)(=O)=O` the figure was 140 nM; with `CC1=C[C@@H]2CN(C(=O)N2O[C@@H](F)C(=O)O)[C@@H]1C(=O)NCCCS(N)(=O)=O`, 22 nM.

In turn, `CC1=C[C@@H]2CN(C(=O)N2O[C@@H](F)C(=O)O)[C@@H]1C(=O)NCC#N` registered an IC50 of 14 nM. The figure for `CC1=C[C@@H]2CN(C(=O)N2O[C@@H](F)C(=O)O)[C@@H]1CNC(=O)OC(C)(C)C` is 44000 nM; for `NC(=O)[C@@H]1CC[C@@H]2CN1C(=O)N2O[C@H](F)C(=O)O` it is 2000 nM. With `NC(=O)[C@@H]1C(C2CC2)=C[C@@H]2CN1C(=O)N2O[C@H](F)C(=O)O`, it took 22 nM to reach half-maximal inhibition (IC50). This IC50 is about 91-fold lower than that of the compound before. The figure for `CC1=C[C@@H](C(N)=O)N2C[C@@H]1N(OC(F)(F)C(=O)O)C2=O` is 36 nM.

Compound `CC1=C[C@@H]2CN(C(=O)N2O[C@@H](F)C(=O)O)[C@@H]1C(=O)NCC[C@@H]1CCC(=O)N1` had an IC50 of 10 nM.

Consider `CC(=O)NNC(=O)[C@@H]1C(C)=C[C@@H]2CN1C(=O)N2OC(F)C(=O)O` (some centres not stated), for which the IC50 came out at 8.3 nM.

`CC1=C[C@@H]2CN(C(=O)N2OC(F)C(=O)O)[C@@H]1C(=O)NCc1cnccn1` (some centres not stated) registered an IC50 of 1.8 nM. Take `CC1=C[C@@H](C#N)N2C[C@@H]1N(O[C@H](F)C(=O)O)C2=O`: half-maximal inhibition (IC50) required 590 nM.

In the case of `CC(=O)NCNC(=O)[C@@H]1C(C)=C[C@@H]2CN1C(=O)N2O[C@@H](F)C(=O)O`, half-maximal inhibition (IC50) required 3.1 nM. The figure for `CC1=C[C@@H]2CN(C(=O)N2OC(F)C(=O)O)[C@@H]1c1nnc(C(N)=O)o1` (some centres not stated) is 180 nM; for `CC1=C[C@@H]2CN(C(=O)N2O[C@@H](F)C(=O)O)[C@@H]1C(=O)NCNS(N)(=O)=O` it is 2.1 nM.

Consider `CC1=C[C@@H]2CN(C(=O)N2OC(C)(F)C(=O)O)[C@@H]1C(N)=O` (mixture of isomers), for which the IC50 was 400 nM. This IC50 is about 190-fold higher than that of the compound before. With `CC1=C[C@@H]2CN(C(=O)N2OC(F)C(=O)O)[C@@H]1C(N)=O` (mixture of isomers) the figure was 20 nM.
